Counter-ions that a name gives are not always drawn.
Tests used:
[1] = biological target: T1, α2 receptors of rat cerebral cortex (Rattus norvegicus, UniProt P22909); assay: Affinity for the α2 receptors of rat cerebral cortex ([^3 H]clonidine displacement); format: binding, Rats (male, CD1, Sprague-Dawley); conditions: rat cerebral cortex membranes, [^3 H]clonidine as marker
T1 construct: The cerebral cortex is immediately removed; from tissue; host or cells: rat cerebral cortex membranes
T1 sequence (P22909 1-465): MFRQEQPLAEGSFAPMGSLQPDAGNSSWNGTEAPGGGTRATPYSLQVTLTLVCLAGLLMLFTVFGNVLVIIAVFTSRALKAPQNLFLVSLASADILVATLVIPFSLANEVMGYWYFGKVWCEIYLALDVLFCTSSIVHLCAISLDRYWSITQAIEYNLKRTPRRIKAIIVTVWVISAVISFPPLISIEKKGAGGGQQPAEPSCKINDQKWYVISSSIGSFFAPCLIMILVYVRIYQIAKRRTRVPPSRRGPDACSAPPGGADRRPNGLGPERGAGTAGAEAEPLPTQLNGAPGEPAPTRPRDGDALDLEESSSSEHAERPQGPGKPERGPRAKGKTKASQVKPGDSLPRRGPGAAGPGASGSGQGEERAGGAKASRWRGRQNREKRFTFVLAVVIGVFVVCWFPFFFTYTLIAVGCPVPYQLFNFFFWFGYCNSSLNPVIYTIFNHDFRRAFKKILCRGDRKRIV
Method: Rats (male, CD1, Sprague-Dawley, 200-250 g) are sacrificed by decapitation. The cerebral cortex is immediately removed. The cerebral cortices of 4 rats are homogenized in 40 ml of buffer. The homogenates are centrifuged at 20,000 rpm for 15 minutes. The pellet is resuspended in 40 ml of buffer and subjected to a second centrifugation (20,000 rpm for 15 minutes). The pellet thereby obtained is suspended in 8 ml of buffer and then stored at -80° C. until used. On the day of the experiment, a membrane suspension is prepared from the frozen suspension. Aliquots of this membrane suspension are mixed with radioactive ligands (used as marker for each type of receptor) and with increasing concentrations of the test compound, and then incubated (final volume: 1 ml). Reaction is stopped by filtration through a 48-hole HARVESTER system (WHATMAN GF/B filter strip). The filter strip is then washed 3 times with 5 ml of buffer and thereafter placed in an automatic cutting system (BRANDEL). The cut filters fall into counting vials and 4 ml of scintillation fluid (Aquasafe 300, ZINSSER) are distributed automatically by the same system (BRANDEL). Each sample is subjected to counting of the radioactivity using a liquid scintillation counter (KONTRON). Three experimental series are carried out with the test compound, each experiment being carried out in duplicate. […]

spontaneous motility = assay: Action on spontaneous motility in mice; format: in vivo; conditions: Mus musculus, ip, 0.5 h, intraperitoneal, half an hour before test, motility recorded over 30 minutes, read-out: dose at and above which a significant decrease in locomotion is observed
Method: Half an hour after receiving the test compound intraperitoneally, the mice are placed in an activity-measuring device, where their motility is recorded over 30 minutes.

α2 receptors = assay: Interaction with yohimbine in mice; format: in vivo
NMRI mice = assay: Pretoxicity in NMRI mice, intraperitoneal; format: in vivo; conditions: 3 animals per dose, IP, increasing doses 16-512 mg/kg
Method: Pretoxicity studies were performed in NMRI mice (3 animals per dose) with increasing doses of 16, 32, 64, 128, 256 and 512 mg/kg of products administered intraperitoneally. The dose causing the death of the three animals tested is given.

[2] = system: intergroup aggressive behaviour; assay: Action on intergroup aggressive behaviour; format: in vivo; conditions: mice, half an hour after test compound, fights in 10 minutes
Method: After spending 3 weeks in each of the halves of a cage separated by an opaque partition, groups of 3 mice receive the test compound. Half an hour later, the two groups in the same cage are brought together by withdrawing the partition, and the number of fights occurring in the course of 10 minutes is noted.

## CC(C)N1CCC=C(c2ccccc2)C1 [CRL 41 244, N-isopropyl-3-phenyl-l,2,5,6-tetrahydropyridine, reference compound]
[1]
  IC50: 700 nM

## C1=C(c2ccccc2)CNCC1 [Example 1, 3-phenyl-l,2,5,6-tetrahydropyridine hydrochloride]
Spontaneous motility
  minimal effective dose: ≥ 0.032 mg/kg
α2 receptors; yohimbine 0.5 mg/kg i.p., compound 0.125 and 0.5 mg/kg i.p.
  effect of yohimbine on hypothermia induced by the compound: decreases the hypothermia
α2 receptors; yohimbine 1 mg/kg i.p., compound 0.5 and 2 mg/kg i.p.
  effect of yohimbine on hypomotility induced by the compound: decreases the hypomotility
NMRI mice
  dose causing the death of the three animals tested: 128 mg/kg
[2]; Mus musculus, 0.5 h, read-out: dose at and above which the number of fights is decreased
  minimal effective dose: ≥ 0.032 mg/kg
[2]
  dose at which the number of fights is most particularly decreased: 0.125 mg/kg
[1]
  IC50: 26 nM
